Assay results reported in ChEMBL document CHEMBL6178017, “Intercepting the Downstream of the Estrogen Receptor Signaling Pathway: Discovery of a Potent and Efficient SRC-3 PROTAC Degrader for Overcoming Endocrine Resistance Breast Cancer” (J Med Chem, 2025).
Calls of active or inactive are those of the source. The calls are words filed in the database; no cut-off is given here.

Columns and labels:
[1] = target: T1, Protein cereblon/Nuclear receptor coactivator 3 (Homo sapiens, UniProt Q9Y6Q9+Q96SW2); experiment: PROTAC activity at CRBN/SRC-3 in tamoxifen-resistant human LCC2 cells assessed as maximal induction of SRC-3 degradation at 1 uM incubated for 36 hrs by immunoblot analysis; assay type: cell-based; settings: Tamoxifen-resistant LCC2 cell
LNCaP = experiment: Antiproliferative activity against human LNCaP cells assessed as inhibition of cell growth by CCK-8 assay; assay type: functional, cell-based
[2] = target: T1, Protein cereblon/Nuclear receptor coactivator 3; experiment: PROTAC activity at CRBN/SRC-3 in human MCF-7 cells harboring D538G mutant assessed as induction of SRC-3 degradation measured after 36 hrs by immunoblot analysis; assay type: cell-based; settings: MCF7, dose 0.01-10 µM
[3] = target: T1, Protein cereblon/Nuclear receptor coactivator 3; experiment: PROTAC activity at CRBN/SRC-3 in human MCF7 cells overexpressing EGFR assessed as downregulation of ER-alpha level at 0.01 to 10 uM measured after 36 hrs by immunoblot analysis; assay type: cell-based; settings: dose 0.01-10 µM
[4] = target: T1, Protein cereblon/Nuclear receptor coactivator 3; experiment: PROTAC activity at CRBN/SRC-3 in human MCF7 cells harboring ER-alpha D538G mutant assessed as downregulation of ER-alpha level at 0.01 to 10 uM measured after 36 hrs by immunoblot analysis; assay type: cell-based; settings: dose 0.01-10 µM
[5] = target: Protein cereblon/Nuclear receptor coactivator 2 (Homo sapiens) (UniProt Q15596+Q96SW2); experiment: PROTAC activity at CRBN/SRC-2 in human MCF7 cells assessed as induction of SRC-2 degradation at 0.01 to 10 uM measured after 36 hrs by immunoblot analysis; assay type: cell-based; settings: dose 0.01-10 µM
[6] = target: T1, Protein cereblon/Nuclear receptor coactivator 3; experiment: PROTAC activity at CRBN/SRC-3 in human MCF7 cells assessed as induction of SRC-3 degradation at 1 uM preincubated with proteasome inhibitor, MG-132 for 2 hrs followed by incubation with compound and measured after 36 hrs by immunoblot analysis; assay type: cell-based
[7] = target: T1, Protein cereblon/Nuclear receptor coactivator 3; experiment: PROTAC activity at CRBN/SRC-3 in tamoxifen-resistant human LCC2 cells assessed as induction of SRC-3 degradation at 1 uM preincubated with proteasome inhibitor, bortezomib for 2 hrs followed by incubation with compound and measured after 36 hrs by immunoblot analysis; assay type: cell-based; settings: Tamoxifen-resistant LCC2 cell
[8] = target: T1, Protein cereblon/Nuclear receptor coactivator 3; experiment: PROTAC activity at CRBN/SRC-3 in tamoxifen-resistant human LCC2 cells assessed as induction of SRC-3 degradation at 1 uM preincubated with SI-2 for 2 hrs followed by incubation with compound and measured after 36 hrs by immunoblot analysis; assay type: cell-based; settings: Tamoxifen-resistant LCC2 cell
[9] = target: T1, Protein cereblon/Nuclear receptor coactivator 3; experiment: PROTAC activity at CRBN/SRC-3 in tamoxifen-resistant human LCC2 cells assessed as induction of SRC-3 degradation at 1 uM preincubated with CRBN ligand-pomolidomide for 2 hrs followed by incubation with compound and measured after 36 hrs by immunoblot analysis; assay type: cell-based; settings: Tamoxifen-resistant LCC2 cell
[10] = Induction of apoptosis in tamoxifen-resistant human LCC2 cells assessed as necrotic cells at 20 uM incubated for 48 hrs by AnnexinV-FITC/PI staining based flow cytometry (reference value: 1.16%); assay type: functional, Tamoxifen-resistant LCC2 cell
[11] = Induction of apoptosis in tamoxifen-resistant human LCC2 cells assessed as viable cells at 5 uM incubated for 48 hrs by AnnexinV-FITC/PI staining based flow cytometry (reference value: 88.09%); assay type: functional; settings: Tamoxifen-resistant LCC2 cell, read-out: Activity
[12] = Induction of cell cycle arrest in tamoxifen-resistant human LCC2 cells assessed as accumulation of cells at S phase at 10 uM incubated for 48 hrs by propidium iodide staining based flow cytometry (reference value: 9.72%); assay type: functional
[13] = Metabolic stability of the compound in human plasma measured after 2 hrs by LC-MS/MS analysis; assay type: ADME, cell-free; settings: read-out: Stability
Cytochrome P450 2C9 = Cytochrome P450 2C9 (Homo sapiens, UniProt P11712); experiment: Inhibition of CYP2C9 (unknown origin) using diclofenac as substrate; assay type: ADME
Cytochrome P450 3A4 = Cytochrome P450 3A4 (Homo sapiens, UniProt P08684); experiment: Inhibition of CYP3A4(unknown origin) using testosterone as substrate; assay type: ADME
[14] = AUC(0 to t) in Balb/c mouse at 2 mg/kg, iv by LC-MS/MS analysis; assay type: ADME, organism-based; settings: in vivo
[15] = Clearance in Balb/c mouse at 2 mg/kg, iv by LC-MS/MS analysis; assay type: ADME, organism-based; settings: in vivo
[16] = AUC (0 to t) in Balb/c mouse at 4 mg/kg, ip by LC-MS/MS analysis; assay type: ADME, organism-based; settings: in vivo
[17] = AUC (0 to infinity) in Balb/c mouse at 4 mg/kg, ip by LC-MS/MS analysis; assay type: ADME, organism-based; settings: in vivo
[18] = Antitumor activity against tamoxifen-resistant human LCC2 cells xenografted in Balb/c mouse assessed as inhibition of tumor growth at 5 uM/Kg, ip administered once every 2 days for 23 days; assay type: functional, Tamoxifen-resistant LCC2 cell; settings: time 23 day, at 5 µmol/kg
[19] = Toxicity against Balb/c mouse xenografted with tamoxifen-resistant human LCC2 cells assessed as effect on body weight at 10 uM/Kg, ip administered once every 2 days for 23 days; assay type: organism-based; settings: in vivo, 552 h, time 23 day
[20] = target: Voltage-gated inwardly rectifying potassium channel KCNH2 (Homo sapiens, UniProt Q12809)
Chain of Voltage-gated inwardly rectifying potassium channel KCNH2 (Q12809 whole entry): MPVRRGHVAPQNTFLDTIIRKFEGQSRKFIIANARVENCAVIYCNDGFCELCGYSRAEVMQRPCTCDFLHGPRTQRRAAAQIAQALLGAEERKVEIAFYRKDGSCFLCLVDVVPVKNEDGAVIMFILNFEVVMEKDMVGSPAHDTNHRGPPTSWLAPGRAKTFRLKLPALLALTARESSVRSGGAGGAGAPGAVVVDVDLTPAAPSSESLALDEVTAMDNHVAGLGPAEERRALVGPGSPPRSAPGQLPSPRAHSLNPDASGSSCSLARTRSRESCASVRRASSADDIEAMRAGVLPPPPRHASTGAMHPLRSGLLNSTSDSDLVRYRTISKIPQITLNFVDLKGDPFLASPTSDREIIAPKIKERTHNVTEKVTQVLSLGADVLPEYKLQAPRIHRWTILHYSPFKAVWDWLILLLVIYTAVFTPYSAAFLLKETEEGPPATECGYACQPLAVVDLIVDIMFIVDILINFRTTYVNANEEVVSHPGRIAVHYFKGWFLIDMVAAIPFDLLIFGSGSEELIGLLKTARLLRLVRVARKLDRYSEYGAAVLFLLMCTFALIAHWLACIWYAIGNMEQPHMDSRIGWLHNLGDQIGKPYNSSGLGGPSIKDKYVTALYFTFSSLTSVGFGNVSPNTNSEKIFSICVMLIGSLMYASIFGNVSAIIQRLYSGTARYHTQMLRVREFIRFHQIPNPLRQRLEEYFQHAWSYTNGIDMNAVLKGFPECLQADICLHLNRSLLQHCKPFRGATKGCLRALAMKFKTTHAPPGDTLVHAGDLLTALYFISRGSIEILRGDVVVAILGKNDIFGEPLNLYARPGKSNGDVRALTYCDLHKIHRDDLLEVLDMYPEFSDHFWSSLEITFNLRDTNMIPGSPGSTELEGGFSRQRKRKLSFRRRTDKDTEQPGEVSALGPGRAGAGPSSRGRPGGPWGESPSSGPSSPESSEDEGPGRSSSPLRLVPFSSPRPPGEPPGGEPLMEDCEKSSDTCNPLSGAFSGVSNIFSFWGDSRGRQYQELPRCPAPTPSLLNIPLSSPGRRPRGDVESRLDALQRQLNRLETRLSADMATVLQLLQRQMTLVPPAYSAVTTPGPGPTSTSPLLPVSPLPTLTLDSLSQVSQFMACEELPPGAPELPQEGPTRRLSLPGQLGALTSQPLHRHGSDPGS

T1 sequence (Q96SW2 whole entry partner): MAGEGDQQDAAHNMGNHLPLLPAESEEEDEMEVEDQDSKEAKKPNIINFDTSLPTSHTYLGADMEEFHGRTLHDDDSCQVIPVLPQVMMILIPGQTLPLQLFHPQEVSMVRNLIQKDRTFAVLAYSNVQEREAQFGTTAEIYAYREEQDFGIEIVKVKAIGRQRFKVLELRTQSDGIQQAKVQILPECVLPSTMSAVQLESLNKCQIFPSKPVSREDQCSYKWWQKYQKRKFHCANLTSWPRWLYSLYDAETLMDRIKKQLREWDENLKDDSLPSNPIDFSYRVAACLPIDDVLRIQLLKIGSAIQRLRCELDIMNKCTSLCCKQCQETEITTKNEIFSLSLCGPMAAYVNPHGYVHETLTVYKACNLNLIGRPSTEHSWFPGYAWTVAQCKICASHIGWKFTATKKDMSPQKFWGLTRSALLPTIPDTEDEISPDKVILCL
T1 sequence (Q9Y6Q9 2-1424 limits assumed): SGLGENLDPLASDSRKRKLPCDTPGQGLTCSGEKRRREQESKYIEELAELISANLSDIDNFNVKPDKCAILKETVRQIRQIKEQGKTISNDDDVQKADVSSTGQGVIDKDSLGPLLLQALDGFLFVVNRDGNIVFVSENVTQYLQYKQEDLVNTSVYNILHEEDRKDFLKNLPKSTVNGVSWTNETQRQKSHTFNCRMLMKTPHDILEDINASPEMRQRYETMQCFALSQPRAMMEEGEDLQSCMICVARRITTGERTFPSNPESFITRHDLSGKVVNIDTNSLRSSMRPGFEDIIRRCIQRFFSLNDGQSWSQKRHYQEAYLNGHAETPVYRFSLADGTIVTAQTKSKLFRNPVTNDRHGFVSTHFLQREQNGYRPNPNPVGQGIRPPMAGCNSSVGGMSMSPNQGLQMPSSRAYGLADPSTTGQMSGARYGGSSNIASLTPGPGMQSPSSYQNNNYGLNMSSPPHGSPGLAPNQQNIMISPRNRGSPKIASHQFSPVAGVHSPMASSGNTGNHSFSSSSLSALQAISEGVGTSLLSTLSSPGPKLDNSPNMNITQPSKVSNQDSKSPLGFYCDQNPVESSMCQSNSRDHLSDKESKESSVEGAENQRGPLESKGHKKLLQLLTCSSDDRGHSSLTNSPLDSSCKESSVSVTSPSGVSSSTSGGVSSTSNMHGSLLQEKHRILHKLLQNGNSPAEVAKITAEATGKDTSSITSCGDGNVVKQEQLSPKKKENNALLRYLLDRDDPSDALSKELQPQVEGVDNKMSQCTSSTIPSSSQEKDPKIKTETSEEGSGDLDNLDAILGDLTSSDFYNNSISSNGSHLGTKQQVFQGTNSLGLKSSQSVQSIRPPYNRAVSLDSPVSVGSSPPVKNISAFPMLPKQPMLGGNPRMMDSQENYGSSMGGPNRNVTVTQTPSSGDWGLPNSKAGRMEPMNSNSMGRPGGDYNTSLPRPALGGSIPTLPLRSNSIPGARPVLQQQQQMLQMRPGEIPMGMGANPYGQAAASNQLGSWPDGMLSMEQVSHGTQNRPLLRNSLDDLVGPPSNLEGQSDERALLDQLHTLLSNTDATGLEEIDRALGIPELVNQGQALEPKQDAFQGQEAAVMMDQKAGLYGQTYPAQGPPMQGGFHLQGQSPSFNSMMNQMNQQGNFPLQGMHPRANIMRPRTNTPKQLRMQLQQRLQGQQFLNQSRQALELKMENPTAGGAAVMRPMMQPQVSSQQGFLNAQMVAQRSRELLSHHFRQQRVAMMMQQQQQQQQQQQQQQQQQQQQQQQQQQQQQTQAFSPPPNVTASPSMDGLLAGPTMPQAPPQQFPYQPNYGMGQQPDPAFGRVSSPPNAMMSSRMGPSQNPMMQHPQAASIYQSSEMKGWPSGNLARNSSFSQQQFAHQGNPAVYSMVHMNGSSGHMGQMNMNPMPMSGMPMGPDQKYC
Chain of Cytochrome P450 2C9 (P11712 whole entry): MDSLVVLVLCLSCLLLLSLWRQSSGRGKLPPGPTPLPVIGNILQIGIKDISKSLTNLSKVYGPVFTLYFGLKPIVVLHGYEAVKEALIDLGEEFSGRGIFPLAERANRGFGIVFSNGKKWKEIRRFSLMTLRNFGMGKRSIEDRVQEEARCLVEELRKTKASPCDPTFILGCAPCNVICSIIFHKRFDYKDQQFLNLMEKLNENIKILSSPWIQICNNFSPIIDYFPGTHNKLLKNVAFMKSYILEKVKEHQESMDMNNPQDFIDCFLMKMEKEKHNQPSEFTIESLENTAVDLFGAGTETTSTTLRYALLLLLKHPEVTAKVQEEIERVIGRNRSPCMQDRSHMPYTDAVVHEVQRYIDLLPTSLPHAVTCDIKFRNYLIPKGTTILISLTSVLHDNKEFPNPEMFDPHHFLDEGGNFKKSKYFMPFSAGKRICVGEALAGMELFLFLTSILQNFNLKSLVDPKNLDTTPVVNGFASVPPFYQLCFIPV
Chain of Protein cereblon/Nuclear receptor coactivator 2 (Homo sapiens) (Q15596 whole entry, looked up): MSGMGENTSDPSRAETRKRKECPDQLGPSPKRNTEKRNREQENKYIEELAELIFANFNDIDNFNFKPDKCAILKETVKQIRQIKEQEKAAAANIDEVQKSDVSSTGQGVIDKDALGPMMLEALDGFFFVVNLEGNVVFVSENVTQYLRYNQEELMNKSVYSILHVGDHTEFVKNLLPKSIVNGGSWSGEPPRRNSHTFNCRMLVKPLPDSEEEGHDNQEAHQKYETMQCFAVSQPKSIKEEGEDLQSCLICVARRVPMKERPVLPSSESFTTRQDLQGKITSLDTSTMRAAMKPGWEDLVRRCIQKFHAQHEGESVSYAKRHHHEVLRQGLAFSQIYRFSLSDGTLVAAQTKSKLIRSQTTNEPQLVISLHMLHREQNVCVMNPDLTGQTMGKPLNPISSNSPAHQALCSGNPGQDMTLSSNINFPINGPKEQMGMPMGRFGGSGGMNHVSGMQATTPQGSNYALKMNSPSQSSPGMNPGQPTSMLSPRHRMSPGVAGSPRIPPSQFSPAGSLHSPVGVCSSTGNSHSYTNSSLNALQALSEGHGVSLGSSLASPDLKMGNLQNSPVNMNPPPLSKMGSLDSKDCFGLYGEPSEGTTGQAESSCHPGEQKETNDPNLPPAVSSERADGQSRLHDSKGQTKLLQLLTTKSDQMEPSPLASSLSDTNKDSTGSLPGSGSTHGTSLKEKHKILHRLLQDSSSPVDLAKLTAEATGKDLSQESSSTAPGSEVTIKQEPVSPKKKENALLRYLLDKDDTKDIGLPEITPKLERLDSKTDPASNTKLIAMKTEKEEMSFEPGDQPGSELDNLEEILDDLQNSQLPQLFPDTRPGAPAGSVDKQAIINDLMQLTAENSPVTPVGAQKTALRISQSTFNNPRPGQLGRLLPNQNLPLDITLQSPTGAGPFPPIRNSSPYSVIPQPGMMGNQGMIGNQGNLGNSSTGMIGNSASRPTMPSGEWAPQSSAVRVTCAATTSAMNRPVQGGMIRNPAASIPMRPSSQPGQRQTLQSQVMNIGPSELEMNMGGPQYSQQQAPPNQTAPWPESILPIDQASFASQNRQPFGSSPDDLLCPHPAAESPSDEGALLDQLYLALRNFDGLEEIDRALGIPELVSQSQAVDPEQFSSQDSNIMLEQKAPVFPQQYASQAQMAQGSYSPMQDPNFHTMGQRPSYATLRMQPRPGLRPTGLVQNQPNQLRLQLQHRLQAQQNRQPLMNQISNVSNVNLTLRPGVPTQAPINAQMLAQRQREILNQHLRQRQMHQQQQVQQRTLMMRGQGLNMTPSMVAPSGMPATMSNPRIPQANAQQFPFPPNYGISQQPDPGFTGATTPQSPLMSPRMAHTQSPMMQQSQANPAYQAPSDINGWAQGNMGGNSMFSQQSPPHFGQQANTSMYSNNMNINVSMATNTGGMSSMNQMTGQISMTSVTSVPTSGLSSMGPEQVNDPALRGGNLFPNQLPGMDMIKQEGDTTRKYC
Chain of Protein cereblon/Nuclear receptor coactivator 2 (Homo sapiens) (Q96SW2 whole entry, looked up): as the sequence (Q96SW2 whole entry partner) above

C/C(=N\Nc1nc2ccccc2n1C1CN(C2CCN(c3cccc4c3C(=O)N(C3CCC(=O)NC3=O)C4=O)CC2)C1)c1ccccn1 (stereo not drawn)
Activity [1]: Active | IC50 (LNCaP): 1.43 µM | Activity [2]: Dose-dependent-effect | Activity [3]: Active | Activity [4]: Active | Activity [5]: Active; Minimal Activity Against Src-2 Compared To Src-3 Observed | Activity [6]: inactive | Activity [7]: inactive | Activity [8]: Active | Activity [9]: inactive | Activity [10]: 10.9% | viability at 5 µM [11]: 54.6% | Activity [12]: 12.41% | remaining at 2 h [13]: > 50% | IC50 (Cytochrome P450 2C9): > 10 µM | IC50 (Cytochrome P450 3A4): 2.73 µM | AUC(0-t) [14]: 318 ng·h/mL | clearance [15]: 96.8 mL/min/kg | AUC(0-t) [16]: 49.1 ng·h/mL | AUC(0-inf) [17]: 55.2 ng·h/mL | TGI [18]: 54% | Activity [19]: Non-toxic | IC50 [20]: 1.1 µM
